Biological target: Protease (Human immunodeficiency virus 1) (UniProt Q9YQ12)
Assay: Inhibition of HIV1 recombinant protease expressed in Escherichia coli DH5alpha at 17.9 ug/mL after 2 hrs by HPLC assay

Protease (Human immunodeficiency virus 1), sequence (Q9YQ12 as listed by the source): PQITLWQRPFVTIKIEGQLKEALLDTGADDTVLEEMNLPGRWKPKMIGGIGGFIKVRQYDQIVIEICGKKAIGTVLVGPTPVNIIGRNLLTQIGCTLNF

Row | Structure (SMILES) | inhibition [%]
1 | C[C@@H]1CC[C@]2(C(=O)O)CC[C@]3(C)C(=CC[C@@H]4[C@@]5(C)C[C@@H](O)[C@H](O)C(C)(C)[C@@H]5CC[C@]43C)[C@@H]2[C@]1(C)O | 49
2 | C[C@H]1[C@H](C)CC[C@]2(C(=O)O)CC[C@]3(C)C(=CC[C@@H]4[C@@]5(C)CC[C@H](O)C(C)(C)[C@@H]5CC[C@]43C)[C@H]12 | 85
3 | C[C@@H]1CC[C@]2(C(=O)O)CC[C@]3(C)C(=CC[C@@H]4[C@@]5(C)C[C@@H](O)[C@@H](O)C(C)(C)[C@@H]5CC[C@]43C)[C@@H]2[C@]1(C)O | 0
4 | C[C@@H]1CC[C@]2(C(=O)O)CC[C@]3(C)C(=CC[C@@H]4[C@@]5(C)C[C@@H](O)C(=O)C(C)(C)[C@@H]5CC[C@]43C)[C@@H]2[C@]1(C)O | 72
5 | CC1(C)CC[C@]2(C(=O)O)CC[C@]3(C)C(=CC[C@@H]4[C@@]5(C)C[C@@H](O)[C@H](O)C(C)(C)[C@@H]5CC[C@]43C)[C@@H]2C1 | 100
6 | C[C@@H]1CC[C@]2(C(=O)O)CC[C@]3(C)C(=CC[C@@H]4[C@@]5(C)CC[C@@H](O)C(C)(C)[C@@H]5CC[C@]43C)[C@@H]2[C@]1(C)O | 42
